Read-outs that look alike come from different tables or passages of the source. Bridge positions count the residues as written; N and C are the ends. Ends that are not written are not given here. Peptide text beside a SMILES is read from it.
What was measured:
anesthetized rats [1] = assay: Vasodepressor action (blood pressure) in anesthetized rats; type: in vivo, rat; set-up: decrease of blood pressure at the contract phase of heart: unit not given here
Procedure: Diuretic action of fCNP was measured in accordance with the method described in […] et al and Sudoh et al ([…]. et al., Biochem. Biophys. Res. Commun., 118, 131-139, 1984; Sudoh, […]., Minamino, N. and Matsuo, H. Nature, 332, 78-81 , 1988). Male SD rats (weight 300-400 g) were anesthetized by intraperitoneally receiving 50 mg/kg pentobarbital, and a tracheal cannula (PE-240, Cray Adams) was provided to secure an airway. A cannula for measuring the blood pressure (PE-50) was inserted into one of the femoral arteries, and Ringer solution was injected through a cannula (PE-10) inserted into the femoral venous, at a constant rate of 1.8 ml/hr. Urine was collected into a test tube through a bladder cannula of silastic tube (inside diameter 0.02 inch, outside diameter 0.037 inch, Dow Corning). The collection of urine was carried out for 15 min before the administration of the peptides, at 5 min intervals after the administration till 15 min, and then at appropriate time intervals. The effect of the peptides was measured by comparing the amount of the urine samples and the concentration of the electrolyte in the urine samples, as well as by the change of the blood pressure. In the above assay, a predetermined amount of fCNP was dissolved in 0.1N acetic acid, and neutralized with one tenth volume of 1.3M Tris solution. […]

anesthetized rats [2] = assay: Diuretic and natriuretic action in anesthetized rats; type: in vivo, rat; conditions: for excretion Cl- / excretion K+ / excretion Na+ / excretion urine: urine collected 15 min before and after injection, Means±S.E.M., three rats
Procedure: Diuretic action of fCNP was measured in accordance with the method described in Kangawa et al and Sudoh et al (Kangawa, K. et al., Biochem. Biophys. Res. Commun., 118, 131-139, 1984; Sudoh, T., Kangawa, K., Minamino, N. and Matsuo, H. Nature, 332, 78-81 , 1988). Male SD rats (weight 300-400 g) were anesthetized by intraperitoneally receiving 50 mg/kg pentobarbital, and a tracheal cannula (PE-240, Cray Adams) was provided to secure an airway. A cannula for measuring the blood pressure (PE-50) was inserted into one of the femoral arteries, and Ringer solution was injected through a cannula (PE-10) inserted into the femoral venous, at a constant rate of 1.8 ml/hr. Urine was collected into a test tube through a bladder cannula of silastic tube (inside diameter 0.02 inch, outside diameter 0.037 inch, Dow Corning). The collection of urine was carried out for 15 min before the administration of the peptides, at 5 min intervals after the administration till 15 min, and then at appropriate time intervals. The effect of the peptides was measured by comparing the amount of the urine samples and the concentration of the electrolyte in the urine samples, as well as by the change of the blood pressure.
In the above assay, a predetermined amount of fCNP was dissolved in 0.1N acetic acid, and neutralized with one tenth volume of 1.3M Tris solution. Then, the solution was diluted with 50 μl of a sterile physiological water, and administered through the cervical vein.
In Table 3, diuretic and natriuretic responses are shown in terms of the amount of the urine, the percentages in the decreases of the excretion of Na^+, K^+ and Cl^- (Means±S.E.M.), in which urine samples were collected separately over 15 min before and after the intravenous injection of the peptides to anesthetized rats. Three rats were used for each peptide.

chicken rectum = test system: chicken rectum
Procedure: Relaxant activity in chicken rectum was measured in accordance with the method of […] and Currie ([…]. and Matsuo, H., Biochem. Biophys. Res. Commun., 118, 131-139, 1984; Currie, […]., Cole, […]. and Needleman, P. Science, 221, 71-73, 1983). The values are averages of six repeats. […] Although fCNP lacked the tail sequence at the C-terminal which had been considered to be important for analog peptides in displaying biological activities such as diuretic action (Watanabe, T. X., Noda, Y., Chino […]. and Imai, M. Eur. J. […] Relative activity is defined as the activity of equimolar amount of peptides when the activity of α-hANP is 100.

[3] = relaxant activity of equimolar amount of peptide, activity of α-hANP = 100, averages of six repeats

## CC[C@H](C)[C@@H]1NC(=O)[C@H](CCCNC(=N)N)NC(=O)[C@H](CC(=O)O)NC(=O)[C@H](CC(C)C)NC(=O)[C@H](CCCCN)NC(=O)[C@H](C(C)C)NC(=O)CNC(=O)[C@H](Cc2ccccc2)NC(=O)[C@@H](NC(=O)CNC(=O)[C@H](CCCNC(=N)N)NC(=O)[C@H](CO)NC(=O)[C@H](Cc2ccc(O)cc2)NC(=O)CN)CSSC[C@@H](C(=O)O)NC(=O)CNC(=O)[C@H](CC(C)C)NC(=O)CNC(=O)[C@H](CO)NC(=O)[C@H](Cc2ccccc2)NC(=O)[C@H](C)NC(=O)CNC1=O [fCNP] (H-GYSRGCFGVKLDRIGAFSGLGC-OH; disulfide 6-22)
Anesthetized rats [1]; 10 nmol of fCNP, over a period of 30 min, typical experiment
  decrease of blood pressure at the contract phase of heart: 25-30
Anesthetized rats [1]; anesthetized rats
  vasodepressor action (in words): weak vasodepressor action
Anesthetized rats [2]; 30 μg/kg intravenous
  excretion Cl-: 193 ± 50%
  excretion K+: 163 ± 54%
  excretion Na+: 184 ± 26%
  excretion urine: 192 ± 51%
Anesthetized rats [2]; 100 μg/kg intravenous
  excretion Cl-: 251 ± 43%
  excretion K+: 217 ± 58%
  excretion Na+: 344 ± 36%
  excretion urine: 315 ± 24%
Anesthetized rats [2]; 300 μg/kg intravenous
  excretion Cl-: 369 ± 6%
  excretion K+: 210 ± 33%
  excretion Na+: 428 ± 29%
  excretion urine: 410 ± 27%
Anesthetized rats [2]; ratio to α-hANP, anesthetized rats
  diuretic and natriuretic actions compared to that of α-hANP: about 1/100
Chicken rectum
  relative activity: 321
  relaxant activity in chicken rectum (in words): strong relaxant activity which was comparable to pCNP
Chicken rectum; listed as synthetic fCNP
  relaxant activity in chicken rectum (in words): positive relaxant activity
Chicken rectum; relative to fANP-21
  relaxant activity, times higher than fANP-21: ~7 times
Chicken rectum; relative to α-hANP
  relaxant activity, times higher than α-hANP: about 3 times

## pBNP-26: diuretic peptide; B-type (brain) natriuretic peptide (DSGCFGRRLDRIGSLSGLGCNVLRRY; ends and bridges not checked; cysteine pairing not given here; UniProt P07634 106-131, looked up) [reference compound]
Chicken rectum; [3]
  relative activity: 270

## α-hANP: A-type (atrial) natriuretic peptide used as reference, activity set to 100 (SLRRSSCFGGRMDRIGAQSGLGCNSFRY; ends and bridges not checked; cysteine pairing not given here; UniProt P01160 124-151, looked up) [reference compound]
Anesthetized rats [2]; 3.0 μg/kg intravenous
  excretion Cl-: 445 ± 67%
  excretion K+: 291 ± 19%
  excretion Na+: 572 ± 84%
  excretion urine: 461 ± 51%
Chicken rectum; [3]
  relative activity: 100
